{
  "source": "paper PMC10194981",
  "about": "“Chemosensory protein regulates the behavioural response of Frankliniella intonsa and Frankliniella occidentalis to tomato zonate spot virus–Infected pepper (Capsicum annuum)” (PLOS Pathogens, 2023)",
  "key": {"[1]": {"biological_target": "recombinant wild-type FoccCSP (Frankliniella occidentalis, UniProt G4Y3X1)", "sequence (G4Y3X1 entry or part of it)": "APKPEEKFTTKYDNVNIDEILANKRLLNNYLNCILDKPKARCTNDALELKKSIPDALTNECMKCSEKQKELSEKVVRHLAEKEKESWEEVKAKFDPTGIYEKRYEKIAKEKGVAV", "assay": "Fluorescence (1-NPN) binding and competitive binding assay, wild-type FoccCSP", "settings": "wild-type FoccCSP, displacement of 1-NPN, both 2 μM", "method": "FintCSP1 and FoccCSP DNA were released from pEASY-T1/FintCSP1 and pEASY-T1/FoccCSP, respectively, by restriction digestion with BamHI and XhoI and cloned into the pET-30a vector (Invitrogen). The resulting construct was transformed into Transetta (DE3) Escherichia coli competent cells (Transgen). The production of recombinant FintCSP1 and FoccCSP was induced by addition of isopropyl-β-D-1-thiogalactopyranoside (IPTG, 0.2 mM) at 15°C and purified by Ni ion affinity chromatography (Sangon Biotech, Shanghai, China). The target protein was verified by 15% SDS-PAGE, and its concentration was determined with a BCA protein assay kit (Thermo Scientific, Rockford, IL, USA). The recombinant purified protein was stored at −20°C until use.\n(§1) The binding affinity of FintCSP1 and FoccCSP to the fluorescent probe N-phenyl-1-naphthylamine (1-NPN) was tested using a Spectramax M2 fluorescence spectrometer (Molecular Devices, USA) as reported previously. Volatile compounds and 1-NPN were first dissolved to a concentration of 1 mM in HPLC-grade methanol and dissolved to their indicated final concentration (2–20 μM) to titrate 2 μM protein solutions resuspended in 50 mM Tris-HCl (pH 7.4). The 1-NPN/FintCSP1 or 1-NPN/FoccCSP mixture was excited at 280 nm, and the emission spectra were recorded at 415 nm. The binding constants (Kd) of FintCSP1 or FoccCSP to 1-NPN were calculated by Scatchard analysis using Prism 5 software (GraphPad, La Jolla, CA, USA). Assuming a protein activity of 100% and that the volatile compound binds to the protein in a 1:1 ratio at saturation, the dissociation constants (Ki) of FintCSP1 or FoccCSP for each ligand were calculated according to the IC50 (the concentration when the ligand replaces 50% of the probe) value of the volatile compounds. The Ki values were calculated according to the following equation: Ki = [IC50]/(1 + [1-NPN]/K1-NPN), where [1-NPN] is the free concentration of 1-NPN, and K1-NPN is the Kd of the 1-NPN/FintCSP1 or 1-NPN/FoccCSP."}, "FoccCSP-Tyr31Ala": {"biological_target": "FoccCSP-Tyr31Ala (Frankliniella occidentalis, UniProt G4Y3X1, Y31A)", "sequence (G4Y3X1 entry or part of it Y31A)": "as the sequence (G4Y3X1 entry or part of it) above, with Y12A counted along it", "assay": "Fluorescence (1-NPN) binding and competitive binding assay, FoccCSP mutant", "method": "as §1\n(§2) To verify the key amino acids of FintCSP1 and FoccCSP that bind to cis-3-hexenal, six amino acid residues of FintCSP1 were mutated (Lys26Ala, Phe27Ala, Thr28Ala, Glu67Ala, Ser84Ala, and the negative control residue Val132Ala) and nine amino acid residues of FoccCSP were mutated (Lys26Ala, Phe27Ala, Thr28Ala, Thr29Ala, Tyr31Ala, Asp64Ala, Glu67Ala, Gln87Ala, and the negative control residue Val132Ala) with the Fast Mutagenesis System Kit (Transgen Biotech, Beijing, China) using the pET-30a/FintCSP1 and pET-30a/FoccCSP plasmid DNA as template, respectively. Specific primers were designed using Primer Premier 5.0 according to the instructions of the Fast Mutagenesis System Kit (S1 Table). After validation by sequencing, each recombinant variant protein was produced and purified as described above, and their binding affinity to cis-3-hexenal was measured as described above."}, "FoccCSP-Lys26Ala": {"biological_target": "FoccCSP-Lys26Ala (Frankliniella occidentalis, UniProt G4Y3X1, K26A)", "sequence (G4Y3X1 entry or part of it K26A)": "as the sequence (G4Y3X1 entry or part of it) above, with K7A counted along it", "assay": "Fluorescence (1-NPN) binding and competitive binding assay, FoccCSP mutant", "method": "as §1, §2"}, "FoccCSP-Gln87Ala": {"biological_target": "FoccCSP-Gln87Ala (Frankliniella occidentalis, UniProt G4Y3X1, Q87A)", "sequence (G4Y3X1 entry or part of it Q87A)": "as the sequence (G4Y3X1 entry or part of it) above, with Q68A counted along it", "assay": "Fluorescence (1-NPN) binding and competitive binding assay, FoccCSP mutant", "method": "as §1, §2"}, "F. occidentalis antennae": {"tested_on": "F. occidentalis antennae", "assay": "Electroantennogram (EAG) assay", "design": "species or system Frankliniella occidentalis", "settings": "dsFoccCSP-injected compared to dsEGFP-injected F. occidentalis", "method": "The FintCSP1, FintCSP2, FintOBP, FintOR, FoccCSP, and enhanced green fluorescent protein (EGFP) coding sequences were obtained from GenBank under accession numbers MT199111, MT211602, OK067245, MT211603, AEP27186.1, and U55761.1, respectively. Primers were designed using Primer Premier 5.0, and the T7 promoter sequence (5′-[…]-3′) was added to the 5′ end of each primer (S1 Table). DNA fragments containing T7 promoter sequences were amplified by PCR using pEASY-T1/target gene or pUC-EGFP (preserved in the laboratory) plasmid DNA as template. Then, a double-stranded RNA (dsRNA) was produced from each target gene using the HiScribe T7 Quick High Yield RNA Synthesis Kit (New England Biolabs) according to the manufacturer’s instructions. […]\nAt 24 h after dsRNA injection, the electrophysiological responses of F. intonsa antennae to six volatile components (i.e., m-cymene, cis-3-hexenal, (+)-2-carene, trans-2-hexenal, α-phellandrene, and α-humulene) or F. occidentalis antennae to cis-3-hexenal were recorded using EAG. […] The EAG values to volatile compounds were calculated using the following equation: absolute value of EAG reaction = reaction value of the tested sample—average value of two control measurements."}},
  "data": [
    {"smiles": "CC/C=C\\CC=O", "note": "[cis-3-hexenal]", "values": [
      {"measurement": "IC50", "setting": "[1]; 50 mM Tris-HCl pH 7.4", "result": "28.8 ± 0.45", "unit": "µM"},
      {"measurement": "Ki", "setting": "[1]; pH 7.4", "result": "23.4 ± 0.36", "unit": "µM"},
      {"measurement": "IC50", "setting": "FoccCSP-Tyr31Ala", "result": "43.9 ± 0.66", "unit": "µM"},
      {"measurement": "Ki", "setting": "FoccCSP-Tyr31Ala", "result": "37.4 ± 0.56", "unit": "µM"},
      {"measurement": "binding affinity to cis-3-hexenal (in words)", "setting": "FoccCSP-Tyr31Ala; FoccCSP-Tyr31Ala compared to the wild-type protein", "result": "significantly decreased binding affinities"},
      {"measurement": "IC50", "setting": "FoccCSP-Lys26Ala", "result": "36 ± 0.79", "unit": "µM"},
      {"measurement": "Ki", "setting": "FoccCSP-Lys26Ala", "result": "32.6 ± 0.71", "unit": "µM"},
      {"measurement": "binding affinity to cis-3-hexenal (in words)", "setting": "FoccCSP-Lys26Ala; FoccCSP-Lys26Ala compared to the wild-type protein", "result": "significantly decreased binding affinities"},
      {"measurement": "IC50", "setting": "FoccCSP-Gln87Ala", "result": "47.47 ± 0.44", "unit": "µM"},
      {"measurement": "Ki", "setting": "FoccCSP-Gln87Ala", "result": "43.68 ± 0.41", "unit": "µM"},
      {"measurement": "binding affinity to cis-3-hexenal (in words)", "setting": "FoccCSP-Gln87Ala; FoccCSP-Gln87Ala compared to the wild-type protein", "result": "significantly decreased binding affinities"},
      {"measurement": "EAG response of FoccCSP-silenced antennae (in words)", "setting": "F. occidentalis antennae", "result": "significantly lower response"}
    ]}
  ]
}
